Measurements published in patent US20250170130A1, “MODULATORS OF MYC FAMILY PROTO-ONCOGENE PROTEIN” (Nalo Therapeutics, priority 2022, published 2025).

Tests used:
MycN = target: T1, MycN (Homo sapiens, UniProt P04198); assay: Degradation of MycN protein in SK-N-BE(2) cells, JESS/Western blot of lysates; format: cell-based; settings: SKNBE2, 24 h, SKNBE2 cells, 24 h; for Dmax at 0.5 µM: read-out: % Degradation of MycN (SKNBE2) 24 h, 0.5 μM; for Dmax at 1 µM: read-out: % Degradation of MycN (SKNBE2) 24 h, 1 μM; for Dmax at 3 µM: read-out: % Degradation of MycN (SKNBE2) 24 h, 3 μM; for Dmax at 6 µM: read-out: % Degradation of MycN (SKNBE2) 24 h, 6 μM
T1 construct: endogenous in cells; host or cells: SK-N-BE(2)
T1 sequence (P04198 1-464): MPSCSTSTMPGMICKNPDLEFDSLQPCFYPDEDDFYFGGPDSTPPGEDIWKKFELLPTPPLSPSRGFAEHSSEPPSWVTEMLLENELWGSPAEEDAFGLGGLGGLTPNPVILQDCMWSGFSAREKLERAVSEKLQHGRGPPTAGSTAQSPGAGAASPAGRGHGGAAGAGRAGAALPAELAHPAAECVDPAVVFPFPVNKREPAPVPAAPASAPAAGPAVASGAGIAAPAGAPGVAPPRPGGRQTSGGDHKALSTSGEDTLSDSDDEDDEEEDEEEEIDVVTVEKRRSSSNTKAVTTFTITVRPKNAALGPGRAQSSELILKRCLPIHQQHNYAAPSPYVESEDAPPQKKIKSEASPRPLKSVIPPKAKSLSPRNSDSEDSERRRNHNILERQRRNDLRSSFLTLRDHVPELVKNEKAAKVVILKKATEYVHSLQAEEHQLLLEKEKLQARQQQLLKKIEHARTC
Experimental: (§1) For L363 cells (suspension), 1E6 cells were plated into each well of a 6 well plate. For SK-N-BE(2) cells (adherent), 5E5 cells were plated into each well of a 6 well dish. Cells were cultured for 24 hrs then treated with exemplary compounds at 0.1, 0.5, 1.0, 3.0 and 6.0 mM final assay concentrations plus DMSO control. All compounds were diluted to 10 mM in DMSO. Cells were treated with the compound for 24 hrs, then for both cell types, media containing cells were removed from wells into a 15 ml centrifuge tube, and remaining adherent SK-N-BE(2) cells were also scraped from the wells into the appropriate tubes. Tubes were centrifuged, cells were washed with PBS then re-centrifuged to pellet cells. A RIPA buffer cocktail was added to the cells on ice for 5 mins. Cell lysates were clarified by centrifugation and stored at −80 degrees until required. BCA assay was performed on each lysate to determine the protein concentration.
(§2) Once an appropriate lysate concentration and antibody concentration was determined, samples were screened in the JESS technology (Protein Simple, San Jose, CA—https://www.proteinsimple.com/jess.html).
(§3) Target protein antibodies (n-myc and c-myc) were detected in the chemi-luminescence channel and loading controls (tubulin and GAPDH) were detected using a Near Infra Red (NIR) labeled secondary antibody.
For SK-N-EB2 adherent cells, 5E5 cells in 1.9 mls media were plated into 6 well dishes and incubated for 24 hrs. Exemplary compounds were added (100 ul, 1 in 20 dilution in media) to each well (final assay concentration 6, 3, 1 and […]) together with DMSO control wells and incubated for 24 hrs. Cells were scrapped off the plate, centrifuged, washed with PBS, centrifuged, then a RIPA buffer cocktail added to the cells (100 ul), centrifuged and stored at −80 for later analysis. For L363 suspension cells, 1E6 cells were plated into 24 well dishes (950 ul media) and incubated for 24 hrs. Exemplary compounds were added (50 ul, 1 in 20 dilution in media) to each well (final assay concentration 6, 3, 1 and […]) together with DMSO control wells and incubated for 24 hrs. Cells were aspirated into tubes, centrifuged, washed with PBS, centrifuged, then a RIPA buffer cocktail added to the cells (100 ul), centrifuged and stored at −80 for later analysis.
(§4) For Western blot, a BCA (total protein) assay was run on all samples, these were then run in batches of 5 compounds plus control (DMSO) on each Western blot run—n-myc and c-myc were run in separate experiments in the chemiluminescence channel. Both tubulin and GAPDH were run as loading controls in all lanes in the near infra red channel.

MycC = target: T2, MycC (Homo sapiens, UniProt P01106); assay: Degradation of MycC protein in L363 cells, JESS/Western blot of lysates; format: cell-based; settings: L-363, 24 h, L-363 cells, 24 h; for Dmax at 0.5 µM: read-out: % Degradation of MycC (L-363) 24 h, 0.5 μM; for Dmax at 1 µM: read-out: % Degradation of MycC (L-363) 24 h, 1 μM; for Dmax at 3 µM: read-out: % Degradation of MycC (L-363) 24 h, 3 μM; for Dmax at 6 µM: read-out: % Degradation of MycC (L-363) 24 h, 6 μM
T2 construct: endogenous in cells; host or cells: L363
T2 sequence (P01106 whole entry): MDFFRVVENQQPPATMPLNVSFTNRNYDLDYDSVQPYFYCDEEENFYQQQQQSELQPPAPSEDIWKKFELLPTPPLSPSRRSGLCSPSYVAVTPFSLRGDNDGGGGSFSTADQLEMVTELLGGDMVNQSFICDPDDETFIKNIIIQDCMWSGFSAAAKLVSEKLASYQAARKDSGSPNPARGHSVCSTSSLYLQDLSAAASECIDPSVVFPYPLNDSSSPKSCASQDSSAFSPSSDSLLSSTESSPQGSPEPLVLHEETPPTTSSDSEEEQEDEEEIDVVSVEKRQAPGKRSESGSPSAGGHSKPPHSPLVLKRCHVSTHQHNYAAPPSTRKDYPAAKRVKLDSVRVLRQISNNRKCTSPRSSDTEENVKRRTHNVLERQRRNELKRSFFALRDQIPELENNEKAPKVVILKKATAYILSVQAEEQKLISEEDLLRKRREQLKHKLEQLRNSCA
Experimental: as §1, with “Cells were cultured for 24 hrs then treated with exemplary compounds at 0.1, 0.5, 1.0, 3.0 and 6.0 mM final assay concentrations plus DMSO control.” left out
as §2, §3
For SK-N-EB2 adherent cells, 5E5 cells in 1.9 mls media were plated into 6 well dishes and incubated for 24 hrs. […] Cells were scrapped off the plate, centrifuged, washed with PBS, centrifuged, then a RIPA buffer cocktail added to the cells (100 ul), centrifuged and stored at −80 for later analysis. For L363 suspension cells, 1E6 cells were plated into […] (950 ul media) and incubated for 24 hrs. […] Cells were aspirated into tubes, centrifuged, washed with PBS, centrifuged, then a RIPA buffer cocktail added to the cells (100 ul), centrifuged and stored at −80 for later analysis.
as §4

SMILES: CN1C[C@@H]2CN(c3nccc(Nc4cc(C5CC5)[nH]n4)n3)C[C@@H]2C1 [Compound 15, 2-[rac-(3aR,6aS)-2-methyl-1,3,3a,4,6,6a-hexahydropyrrolo[3,4-c]pyrrol-5-yl]-N-(5-cyclopropyl-1H-pyrazol-3-yl)pyrimidin-4-amine]
- Dmax at 0.5 µM (MycN): 20 to 49%
- Dmax at 1 µM (MycN): 20 to 49%
- Dmax at 3 µM (MycN): 50 to 79%
- Dmax at 6 µM (MycN): 80 to 100%
- Dmax at 0.5 µM (MycC): < 20%
- Dmax at 1 µM (MycC): 20 to 49%
- Dmax at 3 µM (MycC): 20 to 49%
- Dmax at 6 µM (MycC): 20 to 49%

SMILES: CNC[C@H]1CCCN(c2nccc(Nc3cc(C4CC4)[nH]n3)n2)C1 [Compound 16, N-(5-Cyclopropyl-1H-pyrazol-3-yl)-2-[(3R)-3-(methylaminomethyl)-1-piperidyl]pyrimidin-4-amine]
- Dmax at 0.5 µM (MycN): < 20%
- Dmax at 1 µM (MycN): 80 to 100%
- Dmax at 3 µM (MycN): 80 to 100%
- Dmax at 6 µM (MycN): 80 to 100%
- Dmax at 0.5 µM (MycC): < 20%
- Dmax at 1 µM (MycC): < 20%
- Dmax at 3 µM (MycC): < 20%
- Dmax at 6 µM (MycC): < 20%

SMILES: CN(C)[C@@H]1CCN(c2nccc(Nc3cc(C4CC4)[nH]n3)n2)C1 [Compound 17, N-(5-cyclopropyl-1H-pyrazol-3-yl)-2-[(3R)-3-(dimethylamino)pyrrolidin-1-yl]pyrimidin-4-amine]
- Dmax at 0.5 µM (MycN): 20 to 49%
- Dmax at 1 µM (MycN): 20 to 49%
- Dmax at 3 µM (MycN): 50 to 79%
- Dmax at 6 µM (MycN): 80 to 100%
- Dmax at 3 µM (MycC): < 20%
- Dmax at 6 µM (MycC): 80 to 100%

SMILES: c1cc(Nc2cc(C3CC3)[nH]n2)nc(N2C[C@H]3CNC[C@H]3C2)n1 [Compound 18, N-(5-Cyclopropyl-1H-pyrazol-3-yl)-2-[rac-(3aR,6aS)-2,3,3a,4,6,6a-hexahydro-1H-pyrolo[3,4-c]pyrrol-5-yl]pyrimidin-4-amine]
- Dmax at 0.5 µM (MycN): 20 to 49%
- Dmax at 1 µM (MycN): 50 to 79%
- Dmax at 3 µM (MycN): 80 to 100%
- Dmax at 6 µM (MycN): 80 to 100%
- Dmax at 0.5 µM (MycC): < 20%
- Dmax at 1 µM (MycC): < 20%
- Dmax at 3 µM (MycC): < 20%
- Dmax at 6 µM (MycC): 20 to 49%

SMILES: CN[C@@H]1CCN(c2nccc(Nc3cc(C4CC4)[nH]n3)n2)C1 [Compound 19, N-(5-Cyclopropyl-1H-pyrazol-3-yl)-2-[(3R)-3-(methylamino)pyrrolidin-1-yl]pyrimidin-4-amine]
- Dmax at 3 µM (MycN): 20 to 49%
- Dmax at 6 µM (MycN): 20 to 49%
- Dmax at 0.5 µM (MycC): < 20%

SMILES: CN(C)CCCNc1nccc(Nc2cc(C3CC3)[nH]n2)n1 [Compound 20, N4-(5-Cyclopropyl-1H-pyrazol-3-yl)-N2-[3-(dimethylamino)propyl]pyrimidine-2,4-diamine]
- Dmax at 0.5 µM (MycN): < 20%
- Dmax at 1 µM (MycN): < 20%
- Dmax at 3 µM (MycN): 20 to 49%
- Dmax at 6 µM (MycN): 50 to 79%
- Dmax at 6 µM (MycC): < 20%

SMILES: CNC[C@@H]1CCN(c2nccc(Nc3cc(C4CC4)[nH]n3)n2)C1 [Compound 21, N-(5-Cyclopropyl-1H-pyrazol-3-yl)-2-[(3S)-3-(methylaminomethyl)pyrrolidin-1-yl]pyrimidin-4-amine]
- Dmax at 0.5 µM (MycN): 20 to 49%
- Dmax at 1 µM (MycN): < 20%
- Dmax at 3 µM (MycN): 20 to 49%
- Dmax at 6 µM (MycN): 20 to 49%
- Dmax at 3 µM (MycC): < 20%
- Dmax at 6 µM (MycC): 20 to 49%

SMILES: CN(C)CC12CC(C1)N(c1nccc(Nc3cc(C4CC4)[nH]n3)n1)C2 [Compound 22, N-(5-Cyclopropyl-1H-pyrazol-3-yl)-2-[4-[(dimethylamino)methyl]-2-azabicyclo[2.1.1]hexan-2-yl]pyrimidin-4-amine]
- Dmax at 0.5 µM (MycN): < 20%
- Dmax at 1 µM (MycN): < 20%
- Dmax at 3 µM (MycN): 20 to 49%
- Dmax at 6 µM (MycN): 50 to 79%
- Dmax at 3 µM (MycC): < 20%
- Dmax at 6 µM (MycC): 80 to 100%

SMILES: NC[C@H]1CCN(c2nccc(Nc3cc(C4CCCC4)[nH]n3)n2)C1 [Compound 23, 2-[(3R)-3-(aminomethyl)pyrrolidin-1-yl]-N-(5-cyclopentyl-1H-pyrazol-3-yl)pyrimidin-4-amine]
- Dmax at 0.5 µM (MycN): 20 to 49%
- Dmax at 1 µM (MycN): 50 to 79%
- Dmax at 3 µM (MycN): 80 to 100%
- Dmax at 6 µM (MycN): 80 to 100%
- Dmax at 3 µM (MycC): 80 to 100%
- Dmax at 6 µM (MycC): 80 to 100%
